“And” between values parts separate entries of the source, which are not always exact repeats. Equal values may be shown once.
Key:
[1] = tested on: Total P53, MDM2, P21, AKR1C3 proteins in H460 cells; assay: WB detection, presence and absence of Nutlin-3; type: cell-based, human; conditions: wild-type H460, 5 µM Nutlin-3, 24h, compared with the H460 wild-type DMSO group (Figures 29, 30)
Method: • 1) H460 and H460 P53 KO cell suspensions were added to a 24-well plate, with a cell density of 100000 /well and 995 µL of medium per well. • 2) The cells were cultured overnight in an incubator at 37°C, 5% CO2. • 3) Compound Treatment
After 24 hours of cell plating, according to the protocol, each cell line experiment was grouped as: H460 WT untreated group, H460 P53 KO # 1 untreated group, H460 P53 KO # 7 untreated group, H460 P53 KO # 8 untreated group, H460 P53 KO # 12 untreated group, H460 WT 0.1% DMSO treated group, H460 WT 5 µM Nutlin-3 treated group, H460 P53 KO # 1 5 µM Nutlin-3 treated group, H460 P53 KO # 7 5 µM Nutlin-3 treated group, H460 P53 KO # 8 5 µM Nutlin-3 treated group, H460 P53 KO # 12 5 µM Nutlin-3 treated group. […]
• 1) The cell plates were taken back, the medium supernatant was discarded, and the plates were gently rinsed with PBS. […] The cells were scraped off with a cell scraper, lysed on ice for 30 min, and centrifuged at 14000 rpm and 4°C for 10 min. • 2) Protein quantification was performed using the BCA method. […] Solutions A and B of the ECL luminescence solution (SuperSignal West Femto Maximum Sensitivity) were mixed and added to the membrane dried away from water. […]

HPAF-II cells = assay: In vitro cell proliferation inhibition (96-well, CTG, 72 hours); type: cell-based; conditions: Homo sapiens, monotherapy, applicant's previous cancer cell proliferation inhibition test data
liver cancer = assay: Phase II clinical trial of AST-3424 (CTR20191399); type: in vivo, human
From the text: The clinical trial registration number is CTR20191399.
• 1. Male or female, aged ≥18 years old. • 2. Histopathologically confirmed advanced HCC that cannot be controlled by surgical resection or local therapy. • 3. History of prior standard systemic therapy including, but not limited to, Sorafenib and/or Oxaliplatin-based systemic chemotherapy, Lenvatinib, Regorafenib and/or Nivolumab, who have experienced disease progression, toxicity intolerance, or refusal to continue treatment with these drugs. • 4. At least one measurable lesion meeting RECIST 1.1 criteria. A lesion with a history of prior radiation therapy shall not be regarded as the measurable lesion unless a definite radiological progression is observed after radiation therapy. • 5. […] Eastern Cooperative Oncology Group (ECOG) performance status score of 0 or 1. • 7. Expected survival time ≥ 12 weeks. • 8. With or without HBV or HCV infection. a. For subjects with HBV infection, HBV-DNA level shall be <2,000 IU/ml, and antiviral therapy with entecavir, tenofovir disoproxil fumarate, or tenofovir alafenamide fumarate shall be administered according to the national guidelines for the prevention and treatment of chronic hepatitis B. The therapy shall be maintained during the study and continued for 6 months after the last dose of the study drug. b. For subjects with HCV infection (in the presence of detectable HCV-RNA or anti-HCV antibodies), treatment may be conducted according to medical practice. • 9. Child-Pugh score ≤ 6 points. • 10. No history of hepatic encephalopathy. • 11. Prior to the initiation of the study drug, all toxicities from previous anticancer therapies (except alopecia, fatigue, or peripheral neuropathy) shall have returned to Grade 1 or baseline levels (NCI CTCAE Version 5). • 12. Subject's laboratory tests shall meet the following criteria. During 14 days before screening laboratory tests, no correction of indicators by blood transfusion, hematopoietic growth factor infusion or albumin infusion is allowed to meet the inclusion criteria: a. Hemoglobin ≥ 90 g/L; b. Platelet count ≥ 80 × 10^9/L; c. Absolute neutrophil count (ANC) ≥ 1.5 × 10^9/L; d. Serum total bilirubin ≤ 3 mg/dL; E. ALT and AST ≤ 5.0 × ULN; f. International normalized ratio (INR) ≤ 2.3 or prothrombin time prolongation ≤ 6 seconds; g. Albumin ≥ 29 g/L; h. Creatinine clearance > 50 mL/min as measured according to the Cockcroft-Gault equation. • 13. No history of alcohol, drug or substance abuse within the past year. • 14. Fertile female subjects shall be in non-lactating and have a negative pregnancy test result within 5 days prior to the initiation of treatment (the subject with a positive urine pregnancy test result needs to be reconfirmed by a serum pregnancy test). • 15. Fertile female and male subjects shall agree to use effective contraceptive measures (e.g. surgical sterilization or condom or diaphragm contraception combined with spermicidal gel or intrauterine contraceptive device [IUD], etc.) with their partners from the start of study participation until 6 months after the last dose of the study drug. • 16. Voluntary participation in this study, fully understanding of the relevant risks, good compliance, and signing the informed consent. Subjects may also sign an informed consent form for future biomedical research (FBR). However, the subjects who would not participate in FBR are still allowed participate in the main trial.
• 1. Untreated active central nervous system (CNS) metastases or leptomeningeal disease. Subjects with CNS metastases that have been adequately treated and confirmed to be stable for at least 4 weeks during screening by clinical tests and brain imaging (MRI or CT) are allowed to participate in the study. • 2. […]

H460 cells = assay: Cell proliferation experiment (3 days) with different administration sequences; type: cell-based; conditions: after the addition of Nutlin-3, different administration sequences (Figure 2)
Method: Further combination therapy experiments with different administration sequences of AST-3424 were carried out. Dosing regimens were set for the experiments.
Monotherapy: Each well was added with AST-3424 alone, Nutlin-3 alone, 5 µL of each compound in different concentrations (400 times) and 5 µL of medium. The cells were treated (DMSO 0.25% and 0.50%).
Combination therapy: Cells were treated with 5 µL each of AST-3424 and Nutlin-3 in different administration sequences: AST-3424 pre-treatment for 2 hours followed by co-treatment with Nutlin-3 for 6 hours; Nutlin-3 pre-treatment for 2 hours followed by co-treatment with AST-3424 for 6 hours; and co-treatment with AST-3424 and Nutlin-3 for 6 hours.

[2] = tested on: γH2AX protein in H460 cells; assay: WB detection of DNA damage marker; type: cell-based; conditions: 0.1-1 nM AST-3424, 5 µM Nutlin-3, 24 hours (Figures 20-22)
From the text: In the first, the second and the third experiment of the effect of AST-3424 in combination with Nutlin-3 on Ser15-p53, Ser20-p53, Total p53, MDM2 and p21 proteins in H460 cells in example 5, the applicant also performed WB detection of γH2AX protein, with the results shown in Figures 20, 21 and 22.

[3] = 8 subjects who completed efficacy evaluation, liver cancer, 6 mg/m^2 day 1 and day 8 of 21-day cycle, as of July 21, 2023
[4] = subgroup of 4 cases negative (-) for p53 gene mutation or defect, liver cancer, 6 mg/m^2 day 1 and day 8 of 21-day cycle, as of July 21, 2023

For COc1ccc(C2=NC(c3ccc(Cl)cc3)C(c3ccc(Cl)cc3)N2C(=O)N2CCNC(=O)C2)c(OC(C)C)c1 (racemic) [Nutlin-3], the “expressions of MDM2, P53, P21 and AKR1C3 proteins (WB)” value [1] was “all upregulated”.
For O=[N+]([O-])c1ccc(C(OP(=O)(N2CC2)N2CC2)C(F)(F)F)cc1Oc1ccc(-c2ccc(F)cc2)c(F)c1 (centres unmarked) [AST], the IC50 (HPAF-II cells) was 329 nM.
With C[C@H](OP(=O)(N1CC1)N1CC1)c1ccc([N+](=O)[O-])c(Oc2cccc(C(=O)N(C)C)c2)c1 [AST-3424] the “overall DCR” value (liver cancer; 8 evaluated liver cancer subjects, 6 mg/m^2 day 1 and day 8 of 21-day cycle, as of July 21, 2023) was 75%, the “subjects achieved PD” value (liver cancer; [3]) was 25% and the “subjects achieved PR” value (liver cancer; [3]) was 12.5%. For the same compound, the “subjects achieved SD” value (liver cancer; [3]) was 62.5%, the ORR (liver cancer; overall, 8 evaluated liver cancer subjects, 6 mg/m^2 day 1 and day 8 of 21-day cycle, as of July 21, 2023) was 12.5% and the Efficacy evaluation (liver cancer; per case, 3 subjects with positive P53 mutation, unclear in whether it affects protein expression (VUS) (Table 10), as of March 11, 2024) was “SD, lesion increase”. The PFS (liver cancer; per case, 8 P53 mutation-positive (MUT) subjects (Table 8), 6 mg/m^2 day 1 and day 8 of 21-day cycle, as of March 11, 2024) was 1.4 months and 1.6 months and 1.5 months and 1.2 months, the DCR (liver cancer; [4]) was 75% and the ORR (liver cancer; [4]) was 25%. The DCR (liver cancer; subgroup of 4 cases positive (+) for p53 gene mutation or defect, liver cancer, 6 mg/m^2 day 1 and day 8 of 21-day cycle, as of July 21, 2023) was 75%, the “proliferation inhibition rate of AST-3424” value (H460 cells) was “significantly increased” and the “γH2AX protein amount, a biomarker of DNA double-strand damage (WB)” value [2] was “upregulate the amount of γH2AX protein”.

Reference: EP4755396A1, “TREATMENT OF P53 GENE MUTATION OR DEFECT NEGATIVE CANCER AND TUMOR PATIENTS” (Ascentawits Pharmaceuticals, Ltd., priority 2023, dated 2025)
